Our source for the inhibition and Activity values is ChEMBL document CHEMBL3616455, “Anti-adipogenic activity of a new cyclic diarylheptanoid isolated from Alnus japonica on 3T3-L1 cells via modulation of PPARγ, C/EBPα and SREBP1c signaling” (Bioorg Med Chem Lett, 2015).

The target in experiment [1] is CCAAT/enhancer-binding protein alpha (Mus musculus) (UniProt P53566). In words: Inhibition of C/EBPalpha in mouse 3T3L1 preadipocytes at 50 to 100 uM after 8 days by Western blot analysis relative to control. The format is cell-based.
CCAAT/enhancer-binding protein alpha (Mus musculus), sequence (P53566 whole entry): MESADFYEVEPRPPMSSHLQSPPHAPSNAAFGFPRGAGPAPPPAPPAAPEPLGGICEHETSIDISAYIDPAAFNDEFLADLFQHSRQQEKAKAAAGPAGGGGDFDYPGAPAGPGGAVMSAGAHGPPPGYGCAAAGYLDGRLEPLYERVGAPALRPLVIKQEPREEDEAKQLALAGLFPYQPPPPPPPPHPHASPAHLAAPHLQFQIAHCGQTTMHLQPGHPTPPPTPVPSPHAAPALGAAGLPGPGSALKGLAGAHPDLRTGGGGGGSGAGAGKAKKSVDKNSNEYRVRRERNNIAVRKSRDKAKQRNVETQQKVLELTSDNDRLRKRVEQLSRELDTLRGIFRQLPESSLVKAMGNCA
Experiment [2] can be described thus: Downregulation of C/EBPbeta mRNA expression in mouse 3T3L1 preadipocytes at 50 to 100 uM measured on day 2 by qRT-PCR analysis. The following applies: 3T3-L1. The format is functional, cell-based. In general terms: Quantitative PCR measures a nucleic acid by following its amplification.
For experiment [3], the target named is T1, Sterol regulatory element-binding protein 1 (Mus musculus) (UniProt Q9WTN3).
T1 sequence (whole entry): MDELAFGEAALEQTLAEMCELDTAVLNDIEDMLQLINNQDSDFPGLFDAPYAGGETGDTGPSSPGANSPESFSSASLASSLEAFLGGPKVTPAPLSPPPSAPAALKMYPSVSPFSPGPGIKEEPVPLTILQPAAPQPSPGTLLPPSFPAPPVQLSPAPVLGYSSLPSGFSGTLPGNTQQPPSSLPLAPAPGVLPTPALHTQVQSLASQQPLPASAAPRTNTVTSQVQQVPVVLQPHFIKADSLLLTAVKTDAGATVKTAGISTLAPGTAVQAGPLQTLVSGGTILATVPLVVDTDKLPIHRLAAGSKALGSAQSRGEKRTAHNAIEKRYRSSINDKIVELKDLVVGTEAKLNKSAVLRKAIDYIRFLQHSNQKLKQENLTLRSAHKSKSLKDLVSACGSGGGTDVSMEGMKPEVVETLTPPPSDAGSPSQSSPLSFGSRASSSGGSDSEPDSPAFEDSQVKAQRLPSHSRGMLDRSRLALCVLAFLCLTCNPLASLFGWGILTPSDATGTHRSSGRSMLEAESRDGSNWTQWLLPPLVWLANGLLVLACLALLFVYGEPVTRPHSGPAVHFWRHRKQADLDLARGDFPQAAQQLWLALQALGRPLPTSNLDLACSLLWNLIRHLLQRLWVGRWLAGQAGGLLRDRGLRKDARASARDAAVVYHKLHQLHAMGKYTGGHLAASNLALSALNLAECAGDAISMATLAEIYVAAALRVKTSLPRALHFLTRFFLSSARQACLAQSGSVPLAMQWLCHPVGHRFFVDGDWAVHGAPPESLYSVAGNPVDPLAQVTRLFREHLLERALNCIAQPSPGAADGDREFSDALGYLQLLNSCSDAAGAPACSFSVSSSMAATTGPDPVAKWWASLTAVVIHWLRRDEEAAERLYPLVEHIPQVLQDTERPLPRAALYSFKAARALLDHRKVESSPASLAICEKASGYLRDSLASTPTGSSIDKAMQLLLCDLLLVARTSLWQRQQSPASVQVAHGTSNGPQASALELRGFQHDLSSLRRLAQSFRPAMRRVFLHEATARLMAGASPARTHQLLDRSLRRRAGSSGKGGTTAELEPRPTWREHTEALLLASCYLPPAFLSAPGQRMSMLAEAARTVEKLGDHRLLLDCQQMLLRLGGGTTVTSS
In words: Inhibition of SREBP1c in mouse 3T3L1 preadipocytes assessed as downregulation of SCD-1 mRNA expression at 50 to 100 uM after 8 days by qRT-PCR analysis. The format is cell-based.

The species entered for experiment [4] is Mus musculus. In words: Inhibition of PPARgamma/C/EBPalpha/SREBP1c in mouse 3T3L1 preadipocytes assessed as inhibition of adipocyte differentiation by measuring remaining lipid content at 100 uM measured on day 8 by Oil Red O staining-based spectrophotometric analysis relative to control. The format is cell-based.
The nature of experiment [5]: Downregulation of LPL mRNA expression in mouse 3T3L1 preadipocytes at 50 to 100 uM after 8 days by qRT-PCR analysis. It counts as functional, cell-based. The following applies: 3T3-L1.
The nature of experiment [6]: Downregulation of C/EBPdelta mRNA expression in mouse 3T3L1 preadipocytes at 50 to 100 uM measured on day 2 by qRT-PCR analysis. The following applies: 3T3-L1. It counts as functional, cell-based.
For experiment [7], the target named is T1, Sterol regulatory element-binding protein 1 (Mus musculus). In words: Inhibition of SREBP1c in mouse 3T3L1 preadipocytes assessed as downregulation of FAS mRNA expression at 50 to 100 uM after 8 days by qRT-PCR analysis. It counts as cell-based.
Experiment [8] shares this target. Nature of the experiment: Inhibition of SREBP1c in mouse 3T3L1 preadipocytes at 50 to 100 uM after 8 days by Western blot analysis. It counts as cell-based. (A western blot detects proteins with antibodies after separation by electrophoresis.)
Experiment [9] addresses T2, Peroxisome proliferator-activated receptor gamma (Mus musculus) (UniProt P37238).
T2 sequence (whole entry): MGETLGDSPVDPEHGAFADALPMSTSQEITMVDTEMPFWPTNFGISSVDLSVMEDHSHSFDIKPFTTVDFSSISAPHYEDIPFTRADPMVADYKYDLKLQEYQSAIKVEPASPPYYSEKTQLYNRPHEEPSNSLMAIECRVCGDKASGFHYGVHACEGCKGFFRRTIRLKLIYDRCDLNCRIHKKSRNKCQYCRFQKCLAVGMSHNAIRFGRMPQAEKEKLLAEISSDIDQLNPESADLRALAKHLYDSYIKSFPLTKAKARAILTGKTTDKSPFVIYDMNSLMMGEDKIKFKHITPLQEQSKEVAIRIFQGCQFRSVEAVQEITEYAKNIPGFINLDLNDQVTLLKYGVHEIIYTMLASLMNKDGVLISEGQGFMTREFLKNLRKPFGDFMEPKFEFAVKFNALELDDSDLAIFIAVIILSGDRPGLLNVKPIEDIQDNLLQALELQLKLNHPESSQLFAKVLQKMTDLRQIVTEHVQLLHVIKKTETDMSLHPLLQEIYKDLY
In words: Inhibition of PPARgamma in mouse 3T3L1 preadipocytes at 50 to 100 uM after 8 days by Western blot analysis relative to control. The format is cell-based.

The source made the active and inactive calls. No cut-off for these calls is given here.

Consider `O=C1CCc2ccc(O)c(c2)-c2cc(ccc2O)CCC(=O)C1O`, for which the inhibition entry in [1], in experiment [3], in experiment [7], in experiment [8] and in experiment [9] was “Active” throughout. For the same compound, the result in experiment [2], in experiment [5] and in [6] was Active. Besides, the Activity in [4] came out at 11.6%.
As for `O=C(CCc1ccc(O)c(O)c1)C[C@H](CCc1ccc(O)c(O)c1)O[C@@H]1OC[C@@H](O)[C@H](O)[C@H]1OC(=O)/C=C/c1ccc(O)cc1`, in experiment [4], the Activity came to 95.7%.
With `COc1cc(/C=C/C(=O)O[C@H]2[C@H](O[C@@H](CCc3ccc(O)c(O)c3)CC(=O)CCc3ccc(O)c(O)c3)OC[C@@H](O)[C@@H]2O)ccc1O`, the Activity in experiment [4] is 71.3%.
For the compound `Oc1ccc2cc1-c1cc(ccc1O)CC(O)C(O)CC(O)C(O)C2` (stereo not given), the Activity in [4] worked out at 58.5%.
With `O=C(CCc1ccc(O)c(O)c1)C[C@H](CCc1ccc(O)c(O)c1)O[C@@H]1OC[C@@H](O)[C@H](O)[C@H]1OC(=O)/C=C/c1ccccc1`, the Activity in experiment [4] turned out to be 85.6%.
`O=C(O[C@@H]1Cc2c(O)cc(O)cc2O[C@@H]1c1cc(O)c(O)c(O)c1)c1cc(O)c(O)c(O)c1`: the Activity in experiment [4] amounted to 54.5%.
With `O=C1CCCCc2ccc(O)c(c2)-c2cc(ccc2O)CC1`, the Activity in experiment [4] is 54.4%.
